The first assay concerns the target T1, Human NK1 Receptor (Homo sapiens, UniProt P25103).
T1 construct: endogenous in cells; host or cells: Human lymphoma IM9 cells (whole cells)
Description: In Vitro Human NK1 Receptor Binding Assay ([125I]Bolton-Hunter substance P displacement, IM9 cells). Particulars: Human lymphoma IM9 cells, [125I]Bolton-Hunter substance P (0.05-0.1 nM), 50 min at 21° C.; Table 1; read-out: NK1 binding IC50. As for the experimental part:
They have been evaluated in an NK1-receptor binding assay which is described below.
Human lymphoma IM9 cells were grown in RPMI 1640 culture medium supplemented with 10% fetal calf serum and 2 mM glutamine and maintained under an atmosphere of 5% CO2. Cells were passaged every 3-4 days by reseeding to a concentration of 4-8×10^6/40 ml per 175 cm^2 flask. Cells were harvested for experiments by centrifugation at 1000 g for 3 min. Pelleted cells were washed once by resuspension into assay buffer (50 mM Tris HCl pH 7.4, 3 mM MnCl2, 0.02% BSA, […] bacitracin, […] chymostatin, 2 mM phosphoramidon, […] leupeptin) and repeating the centrifugation step before resuspending at a concentration of 2.5×10^6 cells/mL assay buffer. Cells ([…]) were incubated with [^125I]Bolton-Hunter substance P (0.05-0.1 nM) in the presence and absence of varying concentrations of test compounds for 50 min at 21° C. Non-specific binding (10% of the total binding observed under these conditions) was defined by […] [Sar^9, Met(02)^11] substance P. Reactions were terminated by rapid filtration under vacuum onto GF\C filters presoaked in 0.2% PEI for 1-2 h, using a Brandel cell harvester. Filters were washed with 6×1 ml ice-cold Tris HCl (50 mM, pH 7.4) and radioactivity bound determined using a gamma couter. Results were analyzed using iterative curve fitting procedures in RS1 or Graphpad Inplot.
T1 sequence (P25103 whole entry): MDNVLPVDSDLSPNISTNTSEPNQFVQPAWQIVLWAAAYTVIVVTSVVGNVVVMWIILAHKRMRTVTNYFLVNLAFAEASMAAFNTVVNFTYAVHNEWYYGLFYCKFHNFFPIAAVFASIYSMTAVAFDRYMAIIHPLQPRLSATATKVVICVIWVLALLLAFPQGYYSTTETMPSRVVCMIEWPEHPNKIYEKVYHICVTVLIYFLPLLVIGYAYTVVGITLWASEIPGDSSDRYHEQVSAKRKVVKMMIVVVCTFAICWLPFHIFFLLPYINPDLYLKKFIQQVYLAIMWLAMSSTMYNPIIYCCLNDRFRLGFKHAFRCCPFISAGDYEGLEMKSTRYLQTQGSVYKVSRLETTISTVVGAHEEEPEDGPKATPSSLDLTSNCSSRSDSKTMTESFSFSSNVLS
Broadly, the IC50 is the point on the concentration scale where inhibition reaches its midpoint. Turning to `C[C@H](NC(=O)[C@@H](Cc1c[nH]c2ccccc12)NCc1cc2ccccc2o1)c1ccccc1` (relative stereo) [Example 6, 2-[(Benzofuran-2-ylmethyl)-amino]-3-(1H-indol-3-yl)-N-(1-phenyl-ethyl)-propionamide, [R-(R*,S*)]], the 50% inhibitory concentration (IC50) worked out at 0.7 nM. Turning to `Cc1cc(CN[C@H](Cc2c[nH]c3ccccc23)C(=O)N[C@@H](C)c2ccccc2)oc1C` (relative stereo) [Example 8, 2-[(4,5-Dimethyl-furan-2-ylmethyl)-amino]-3-(1H-indol-3-yl)-N-(1-phenyl-ethyl)-propionamide, [R-(R*,S*)]], the half-inhibitory concentration (IC50) worked out at 27 nM. As to `C[C@H](NC(=O)[C@@H](Cc1c[nH]c2ccccc12)NCc1ccc(Cl)s1)c1ccccc1` (relative stereo) [Example 12, 2-[(5-Chloro-thiophen-2-ylmethyl)-amino]-3-(1H-indol-3-yl)-N-(1-phenyl-ethyl)-propionamide, [R(R*,S*)]], the IC50 amounted to 14 nM. As to `C[C@H](NC(=O)[C@@H](Cc1c[nH]c2ccccc12)NCc1cccc(SC(F)(F)F)c1)c1ccccc1` (relative stereo) [Example 13, 3-(1H-Indol-3-yl)-N-(1-phenyl-ethyl)-2-(3-trifluoromethylsulfanyl-benzylamino)-propionamide, [R-(R*,S*)]], the IC50 came to 35 nM. For `C[C@H](NC(=O)[C@@H](Cc1c[nH]c2ccccc12)NCc1cccc(C#N)c1)c1ccccc1` (relative stereo) [Example 14, 2-(3-Cyano-benzylamino)-3-(1H-indol-3-yl)-N-(1-phenyl-ethyl)-propionamide, [R-(R*,S*)]], the IC50 is 4.7 nM. On the same count and under the same terms, then `C[C@H](NC(=O)[C@@H](Cc1c[nH]c2ccccc12)NCc1cccc([N+](=O)[O-])c1)c1ccccc1` (relative stereo) [Example 15, 3-(1H-Indol-3-yl)-2-(3-nitro-benzylamino)-N-(1-phenyl-ethyl)-propionamide, [R-(R*,S*)]], with > 10000 nM; and `C[C@H](NC(=O)[C@@H](Cc1c[nH]c2ccccc12)NCc1cccc(OC(F)(F)F)c1)c1ccccc1` (relative stereo) [Example 16, 3-(1H-Indol-3-yl)-N-(1-phenyl-ethyl)-2-(3-trifluoromethoxy-benzylamino)-propionamide, [R-(R*,S*)]], with 9.1 nM; and `C[C@H](NC(=O)[C@@H](Cc1c[nH]c2ccccc12)NCc1cccc(O)c1)c1ccccc1` (relative stereo) [Example 17, 2-(3-Hydroxy-benzylamino)-3-(1H-indol-3-yl)-N-(1-phenyl-ethyl)-propionamide, [R-(R*,S*)]], with 344 nM. Turning to `C[C@H](NC(=O)[C@@](C)(Cc1c[nH]c2ccccc12)NCc1ccn[nH]1)c1ccccc1` (relative stereo) [Example 21, 3-(1H-Indol-3-yl)-2-methyl-N-(1-phenyl-ethyl)-2-[(2H-pyrazol-3-ylmethyl)-amino]-propionamide, [R-(R*,S*)]], the IC50 stood at 1810 nM.

Staying with this assay, now noted: Human lymphoma IM9 cells, [125I]Bolton-Hunter substance P; Table 3, array-synthesis products; read-out: IC50 (nM) hNK1.
With `O=C(NCc1ccccn1)C(Cc1c[nH]c2ccccc12)NCc1cc2ccccc2o1` (stereo not drawn) [Example 192, 2-[(Benzofuran-2-ylmethyl)-amino]-3-(1H-indol-3-yl)-N-pyridin-2-ylmethyl-propionamide], the IC50 is 1980 nM. On the same count and under the same terms, then `O=C(NCCN1CCNCC1)C(Cc1c[nH]c2ccccc12)NCc1cc2ccccc2o1` (stereo not drawn) [Example 193, 2-[(Benzofuran-2-ylmethyl)-amino]-3-(1H-indol-3-yl)-N-(2-piperazin-1-yl-ethyl)-propionamide], with > 10000 nM; and `O=C(NC1CCCc2ccccc21)C(Cc1c[nH]c2ccccc12)NCc1cc2ccccc2o1` (stereo not drawn) [Example 194, 2-[(Benzofuran-2-ylmethyl)-amino]-3-(1H-indol-3-yl)-N-(1,2,3,4-tetrahydro-naphthalen-1-yl)-propionamide], with 703 nM. `O=C(NC1CCc2ccccc21)C(Cc1c[nH]c2ccccc12)NCc1cc2ccccc2o1` (stereo not drawn) [Example 195, 2-[(Benzofuran-2-ylmethyl)-amino]-N-indan-1-yl-3-(1H-indol-3-yl)-propionamide]: the IC50 was 1750 nM. As for `CCC(NC(=O)C(Cc1c[nH]c2ccccc12)NCc1cc2ccccc2o1)c1cccs1` (stereo not drawn) [Example 196, 2-[(Benzofuran-2-ylmethyl)-amino]-3-(1H-indol-3-yl)-N-(1-thiophen-2-yl-propyl)-propionamide], the IC50 was found to be 92 nM. As for `CC(NC(=O)C(Cc1c[nH]c2ccccc12)NCc1cc2ccccc2o1)c1cccc2ccccc12` (stereo not drawn) [Example 197, 2-[(Benzofuran-2-ylmethyl)-amino]-3-(1H-indol-3-yl)-N-(1-naphthalen-1-yl-ethyl)-propionamide], the IC50 is 933 nM. In the case of `CN1CCCC1CCNC(=O)C(Cc1c[nH]c2ccccc12)NCc1cc2ccccc2o1` (stereo not drawn) [Example 198, 2-[(Benzofuran-2-ylmethyl)-amino]-3-(1H-indol-3-yl)-N-[2-(1-methyl-pyrrolidin-2-yl)-ethyl]-propionamide], the IC50 is > 10000 nM.

Take `COc1ccc(CNC(=O)C(Cc2c[nH]c3ccccc23)NCc2cc3ccccc3o2)cc1` (stereo not drawn) [Example 199, 2-[(Benzofuran-2-ylmethyl)-amino]-3-(1H-indol-3-yl)-N-(4-methoxy-benzyl)-propionamide]: the IC50 amounted to 130 nM.

Regarding `O=C(NCc1cccc(OC(F)(F)F)c1)C(Cc1c[nH]c2ccccc12)NCc1cc2ccccc2o1` (stereo not drawn) [Example 200, 2-[(Benzofuran-2-ylmethyl)-amino]-3-(1H-indol-3-yl)-N-(3-trifluoromethoxy-benzyl)-propionamide], the IC50 worked out at 355 nM. Turning to `O=C(NCCCn1ccnc1)C(Cc1c[nH]c2ccccc12)NCc1cc2ccccc2o1` (stereo not drawn) [Example 201, 2-[(Benzofuran-2-ylmethyl)-amino]-N-(3-imidazol-1-yl-propyl)-3-(1H-indol-3-yl)-propionamide], the IC50 was > 10000 nM.

With `O=C(NCC1CCNC1)C(Cc1c[nH]c2ccccc12)NCc1cc2ccccc2o1` (stereo not drawn) [Example 202, 2-[(Benzofuran-2-ylmethyl)-amino]-3-(1H-indol-3-yl)-N-pyrrolidin-3-ylmethyl-propionamide], the IC50 worked out at 2180 nM. As to `O=C(NCC1CCNCC1)C(Cc1c[nH]c2ccccc12)NCc1cc2ccccc2o1` (stereo not drawn) [Example 203, 2-[(Benzofuran-2-ylmethyl)-amino]-3-(1H-indol-3-yl)-N-piperidin-4-ylmethyl-propionamide], the IC50 was > 10000 nM.

The assay is the same for the next values; noted with them: Table 4; [125I]Bolton-Hunter substance P displacement, human IM9 cells; read-out: IC50 (nM) hNK1.
“2-(2,3-Diphenyl-allylamino)-3-(1H-indol-3-yl)-2-methyl-N-(1-phenyl-ethyl)-propionamide [compound 338]”: the IC50 is > 10000 nM.

In the case of “2-(3-Benzo[1,3]dioxol-5-yl-allylamino)-3-(1H-indol-3-yl)-2-methyl-N-(1-phenyl-ethyl)-propionamide [compound 339]”, the IC50 worked out at 343 nM. Same read-out and setting: then “2-(4-Benzyloxy-benzylamino)-3-(1H-indol-3-yl)-2-methyl-N-(1-phenyl-ethyl)-propionamide [compound 341]”, with > 10000 nM; and “2-(4-Chloro-3-sulfamoyl-benzylamino)-3-(1H-indol-3-yl)-2-methyl-N-(1-phenyl-ethyl)-propionamide [compound 336]”, with 4230 nM. For “2-[3-(4-Benzyloxy-phenyl)-allylamino]-3-(1H-indol-3-yl)-2-methyl-N-(1-phenyl-ethyl)-propionamide [compound 340]”, the half-maximal inhibitory concentration (IC50) turned out to be 4910 nM.

For the compound “3-(1H-Indol-3-yl)-2-methyl-N-(1-phenyl-ethyl)-2-[4-(2-pyrrolidin-1-yl-ethoxy)-benzylamino]-propionamide [compound 335]”, the IC50 is > 10000 nM. Same read-out and setting: for “3-(1H-Indol-3-yl)-2-methyl-N-(1-phenyl-ethyl)-2-[4-(4-phenyl-piperidin-1-yl)-benzylamino]-propionamide [compound 334]” the value was > 10000 nM; for “3-(1H-Indol-3-yl)-2-methyl-N-(1-phenyl-ethyl)-2-[(pyridin-4-ylmethyl)-amino]-propionamide [compound 313]”, 50 nM; for “3-(1H-Indol-3-yl)-2methyl-N-(1-phenyl-ethyl)-2-[(1-phenyl-1H-indol-2-ylmethyl)-amino]-propionamide [compound 333]”, 3610 nM. As to “4-{[2-(1H-Indol-3-yl)-1-methyl-1-(1-phenyl-ethylcarbamoyl)-ethylamino]-methyl}-benzoic acid methyl ester [compound 337]”, the IC50 is 1920 nM.

The assay is the same for the next values; noted with them: Table 5; [125I]Bolton-Hunter substance P displacement, human IM9 cells; read-out: IC50 (nM) hNK1.
“2-(2,3-Diphenyl-allylamino)-3-(1H-indol-3-yl)-2-methyl-N-(1-phenyl-ethyl)-propionamide [compound 338]”: the IC50 is > 10000 nM.

Still in this assay, the particulars now being: human NK1 receptor, IM9 cells, [125I]Bolton-Hunter substance P; read-out: IC50 (nM) hNK1.
Turning to “2-[(Benzofuran-2-ylmethyl)-amino]-N-(5-hydroxy-4-oxo-4H-pyran-2-ylmethyl)-3-(1H-indol-3-yl)-2-methyl-propionamide [compound 164]”, the IC50 was > 10000 nM.

For the origin of these results see US6472418B1, “Non-peptide NK1 receptors antagonists” (Warner-Lambert Company, priority 1998, dated 2002).
